The values below come from patent US11591326B2, “Inhibitors of protein arginine methyltransferase 5 (PRMT5), pharmaceutical products thereof, and methods thereof” (PHARMABLOCK SCIENCES (NANJING), INC., priority 2018, dated 2023).

A word on the IC50: it is the concentration that gives 50% inhibition. As a reminder, the AUC(0-t) is exposure summed from dosing to a finite time, without extrapolation to infinity. Read a low AUC(0-t) as less exposure. The Cmax is the highest concentration seen after dosing. Broadly, the Tmax is the time from dosing to the highest level.

One series has as its system MDA-MB-453. The series can be described thus: Breast cancer panel proliferation inhibition, MDA-MB-453. The class given is cell-based. To be noted: Homo sapiens. The procedure:
Inhibitory ability of compounds synthesized on the proliferation of three panels of cancer cell lines, including 5 breast cancer, 6 liver cancer, and 3 lung cancer cell lines were evaluated. Exponentially growing cells were seeded in the media of choice at various cell densities in 384-well plates with 20 ul per well and incubated overnight at 37° C., 5% CO2 incubator. Compounds were prepared as 10-point, 3-fold serial dilutions in DMSO, beginning at 6 mM. 1 μl of DMSO solutions from the compound stock plates were added to 99 ul of cell media (final top concentration of compound in the assay was 30 uM and the final concentration of DMSO was 0.5%). 20 μL of compound solutions in media were added to each well of plates with cells seeded. After adding compound solutions, assay plates were incubated for 8 and 12 days, respectively, at 37° C., 5% CO2. During this incubation period, cell media was changed every 4 days. After removing old media from cell plates, 40 ul of media with testing compounds dissolved, which were prepared by adding 1 ul of compound DMSO serial solutions to 199 ul of cell media, were added to the assay plates with the same layout as they were initially prepared. After 8 or 12 days, cell viability was measured using the CellTiter-Glo assay kit from Promega (Madison, Wis., USA) by quantitating the ATP present in the cell cultures. 20 μL of CellTiter-Glo reagent was added to each well of the cell plates. Luminescence was read after 10 minute of incubation with the Envision multiple plate reader from PerkinElmer (Waltham, Mass., USA). The concentrations of compounds inhibiting cell viability by 50% (IC50 values) were determined using a sigmoidal dose-response model (variable slopes, four parameters) in Prism 7 (La Jolla, Calif., USA).

Series [1] in a line: Pharmacokinetic study in mouse. The class given is in vivo, Male CD-1 mice. To be noted: male, CD-1, plasma; for plasma clearance / Vd: 2 mg/kg, Mouse PK (IV) 2 mpk; for plasma clearance: read-out: Clint (converted); for Vd: read-out: Vss; for AUC(0-t) / Cmax / Tmax / bioavailability / half-life: 10 mg/kg, Mouse PK (PO) 10 mpk; for half-life: read-out: T½ (converted). How it is done:
(§1) Male CD-1 mice (16-24 g; 6-8 weeks; purchased from Shanghai SLAC laboratory animal CO. LTD; n=18, with 3 per time point) were treated with a single dose of compounds being tested at 2 mg/kg by intravenous tail-vein injection and 10 mg/kg by oral gavage administration, with both doses formulated in 20% N,N-dimethylacetamide in water. Animals upon PO administration were fasted overnight and fed 4 hours after dosing. Animals upon IV administration were free access to food and water. The study was performed in accordance with the guidelines and standards of the Association for Assessment and Accreditation of Laboratory Animal Care (AAALAC International) and the National Institutes of Health.
The animals were anesthetized via isoflurane at the designated time points, and approximately 110 μL of blood sample was collected via retro-orbital puncture or cardiac puncture for stagger bleeding under the anesthesia with Isoflurane inhalation into EDTA-2K tubes. The blood samples were maintained in wet ice first and centrifuged to obtain plasma (2000 g, 4° C., 5 min) within 15 minutes post sampling. Plasma samples were stored at approximately −70° C. until analysis. For plasma samples not diluted, an aliquot of 20 μL sample was added with 200 μL IS (Propranolol, 100 ng/mL) in ACN. The mixture was vortexed for 10 min and centrifuged at 5800 rpm for 10 min. An aliquot of 0.5 μL supernatant was injected for LC-MS/MS analysis. For 10-fold diluted plasma samples, an aliquot of 2 μL sample was added with 18 μL blank diluted plasma, the dilution factor was 10. The followed operation was the same as no diluted plasma samples. Standard calibration curves were constructed by analyzing a series of control plasma aliquots containing Propranolol (100 ng/mL) as an internal standard and 1.0-3,000 ng/mL testing compounds. Compound concentrations were determine with UPLC-MS/MS-33 (Triple Quad™ 6500 Plus).

Series [2] in a line: Pharmacokinetic study in dog. The class given is in vivo, male beagle dogs. To be noted: male, beagle; for plasma clearance / Vd: 2 mg/kg, Dog PK (IV) 2 mpk; for plasma clearance: read-out: Clint (converted); for Vd / AUC(0-t) / Cmax / Tmax / bioavailability / half-life: plasma; for Vd: read-out: Vss; for AUC(0-t) / Cmax / Tmax / bioavailability / half-life: 10 mg/kg, Dog PK (PO) 10 mpk; for half-life: read-out: T½ (converted). The procedure: as §1, with “None naïve male beagle dogs (8-10 kg;” for “Male CD-1 mice (16-24 g; 6-8 weeks;”, “Beijing Marshall Biotechnology Co.” for “Shanghai SLAC laboratory animal CO.”, “compound)” for “time point)”, “5% DMSO+45% PEG400” for “20% N,N-dimethylacetamide”
The animal was restrained manually at the designated time points, and approximately 500 μL of each blood/time point was collected via cephalic vein and put on wet ice, then centrifuged at 2000 g for 5 min (4° C.) within 15 minutes post sampling. Plasma samples were stored at approximately −70° C. until analysis. An aliquot of 20 μL sample was added with 200 μL IS (Diclofenac, 100 ng/mL) in ACN. The mixture was vortexed for 10 min and centrifuged at 5800 rpm for 10 min. An aliquot of 1 μL supernatant was injected for LC-MS/MS analysis. For 10×-diluted sample, an aliquot of 2 μL sample was added with 18 μL blank plasma. The sample preparation procedure is same with no-diluted sample. Standard calibration curves were constructed by analyzing a series of control plasma aliquots containing Diclofenac (100 ng/mL) as an internal standard and 3-3,000 ng/mL testing compounds. Compound concentrations were determined with UPLC-MS/MS-22 (Triple Quad™ 6500).

Where [3] appears, read: 192 h, MDA-MB-453, 8 days, read-out: IC50 (μM) 8 days.
Where [4] appears, read: 288 h, MDA-MB-453, 12 days, read-out: IC50 (μM) 12 days.

Like-named read-outs stand apart in the source and are kept apart here.

With `CC(=O)N1CCC(Nc2ccc3c(c2)C(=O)N(C[C@H](O)CN2CCc4ccccc4C2)CCO3)CC1` [Compound 52a, (R)-7-((1-acetylpiperidin-4-yl)amino)-4-(3-(3,4-dihydroisoquinolin-2(1H)-yl)-2-hydroxypropyl)-3,4-dihydrobenzo[f][1,4]oxazepin-5(2H)-one], the IC50 in the series with MDA-MB-453 (setting [3]) was 0.14 µM. In the series on MDA-MB-453 (setting [4]), the IC50 was determined as 0.06 µM. Further, in series [1], the plasma clearance was 3.04 L/h/kg, the Vd was 2.25 L/kg, the AUC(0-t) is 2.73 µg·h/mL and the concentration peaked (Cmax) at 3.08 µg/mL. Moreover, in series [1], the Tmax is 0.25 h, the bioavailability was found to be 83% and the half-life is 2.86 h. Besides, in series [2], the plasma clearance is 0.31 L/h/kg, the Vd amounted to 1.56 ± 0.041 L/kg, the AUC(0-t) was 42.1 ± 13.2 µg·h/mL and the peak concentration (Cmax) came to 5.55 ± 1.59 µg/mL. In series [2], the Tmax was found to be 1.33 ± 0.577 h, the bioavailability was 133 ± 38.6% and the half-life is 4.81 ± 1 h.
In the case of `CC(=O)N1CCC(Nc2cc(C(=O)NC[C@H](O)CN3CCc4ccccc4C3)ncn2)CC1` [Compound C3, reference compound], the IC50 with MDA-MB-453 (setting [3]) was determined as 1.22 µM. Also, the IC50 in the series with MDA-MB-453 (setting [4]) amounted to 0.16 µM. Besides, in series [1], the plasma clearance is 2.68 L/h/kg, the Vd turned out to be 1.48 L/kg, the AUC(0-t) was 2.42 µg·h/mL and the Cmax worked out at 0.761 µg/mL. Further, in series [1], the Tmax was 2 h, the bioavailability stood at 64.9% and the half-life is 0.798 h. Also, in series [2], the plasma clearance was 0.808 L/h/kg, the Vd turned out to be 1.32 ± 0.144 L/kg, the AUC(0-t) worked out at 13.3 ± 3.28 µg·h/mL and the Cmax amounted to 3 ± 0.567 µg/mL. Further, in series [2], the Tmax is 1.67 ± 0.577 h, the bioavailability was 105 ± 25.5% and the half-life is 3.37 ± 0.64 h.
As for `CC(=O)N1CCC(Nc2ccc3c(c2)C(=O)N(C[C@H](O)CN2CCc4ccccc4C2)CC3)CC1` [Compound 24a, (R)-7-((1-acetylpiperidin-4-yl)amino)-2-(3-(3,4-dihydroisoquinolin-2(1H)-yl)-2-hydroxypropyl)-3,4-dihydroisoquinolin-1(2H)-one], the IC50 in the series on MDA-MB-453 (setting [3]) came to 0.28 µM. The IC50 with MDA-MB-453 (setting [4]) turned out to be 0.19 µM. Besides, in series [1], the plasma clearance is 2.14 L/h/kg, the Vd was found to be 2.48 L/kg, the AUC(0-t) amounted to 3.41 µg·h/mL and the concentration peaked (Cmax) at 3.58 µg/mL. In addition, in series [1], the Tmax came out at 0.25 h, the bioavailability came out at 73.3% and the half-life was 1.22 h. Further, in series [2], the plasma clearance was 0.256 L/h/kg, the Vd was 1.81 ± 0.13 L/kg, the AUC(0-t) worked out at 35.1 ± 7.99 µg·h/mL and the peak level (Cmax) was 4.44 ± 0.68 µg/mL. In addition, in series [2], the Tmax came out at 2 h, the bioavailability was found to be 89.8 ± 20.5% and the half-life is 3.76 ± 0.195 h.
